Measured values from article PMC7382501 (Nature Communications, 2020).

Assays:
Mtb FasR = conditions: ref Mondino et al Mol Microbiol 2013 89:372; cited from earlier work
FasRwt = FasRwt (Mycobacterium tuberculosis, UniProt O05858)
Sequence of FasRwt (O05858 whole entry): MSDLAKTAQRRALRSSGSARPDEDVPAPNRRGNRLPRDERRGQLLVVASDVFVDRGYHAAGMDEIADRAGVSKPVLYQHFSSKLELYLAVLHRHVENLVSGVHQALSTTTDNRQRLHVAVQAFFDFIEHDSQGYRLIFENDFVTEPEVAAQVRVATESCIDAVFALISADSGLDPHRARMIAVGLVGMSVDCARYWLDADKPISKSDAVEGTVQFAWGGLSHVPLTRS

Structure (SMILES) | triggering of DNA-dissociation (Mtb FasR) | k, exponential decay rate of full-length FasR under trypsin proteolysis (FasRwt)
CCCCCCCCCCCCCC(=O)O [C14, myristic acid] | ineffective at triggering DNA-dissociation | –
CCCCCCCCCCCCCCCCCCCC(=O)SCCNC(=O)CCNC(=O)[C@H](O)C(C)(C)COP(=O)(O)OP(=O)(O)OC[C@H]1O[C@@H](n2cnc3c(N)ncnc32)[C@H](O)[C@@H]1OP(=O)(O)O [C20-CoA, arachidoyl-CoA] | – | 0.11
